For series [1] the following is noted: mice; cited from earlier work.
A short description of series [2]: Stability of water solutions. In kind it is physicochemical.
The test system of series [3] is Gram-positive microorganisms including aerobic, anaerobic and Mycobacterium (typical and atypical). Kind of series: In vitro antibacterial activity. In kind it is cell-based. To be noted: in comparison with the initial compound T-9.
The conditions of series [4]: rabbit, in vivo, 20 mg/kg.
For series [5] the following is noted: rat, in vivo, 20 mg/kg.
The conditions of series [6]: mouse, in vivo, 20 mg/kg.
Series [7] is described as follows: Solubility. In kind it is physicochemical. As to conditions: water and organic solvents. The protocol: 4,62 g (0,005 g/moll) of 3-(4-cinnamyl-1-piperazinyl)-iminomethyl rifamycin SV is suspended in 40 ml methanol and 0,1 g sodium ascorbate dissolved in 1 ml water is added. To the obtained suspension 0,9 ml of 30% methanol solution of sodium methylate (equimolar quantity) is added. The suspension immediately turns into a solution because of the formation of the sodium salt. The reaction mixture is filtered to remove the unsolved sediment of sodium ascorbate, and the solvent is concentratrated in vacuum and dried to give the soduim salt as a dark-red solid powder. This product has high purity and the yield is practically quantitative.

Series [8] is described as follows: Non-model pharmacokinetics in mice. As to conditions: base 20 mg/kg.
The test system of series [9] is generalized tuberculosis. As to conditions: doses 10 mg/kg, after 60 days of treatment, test animals; cited from earlier work.

Here are results for three molecules from patent publication US6476036B1, “Sodium salt of 3-(4-cinnamyl-1-piperazinyl)-imino-methyl rifamycin SV” (priority 1998, dated 2002).

Like-named read-outs stand apart in the source and are kept apart here.

`CO[C@H]1/C=C/O[C@@]2(C)Oc3c(C)c(O)c4c(O)c(c(/C=N/N5CCN(C)CC5)c(O)c4c3C2=O)NC(=O)/C(C)=C\C=C\[C@H](C)[C@H](O)[C@@H](C)[C@@H](O)[C@@H](C)[C@H](OC(C)=O)[C@@H]1C` [Rifampicin]: the acute toxicity in series [1] is given as 1500 mg/kg.
Consider “sodium salt of 3-(4-cinnamyl-1-piperazinyl)-iminomethyl rifamycin SV [T-11]”, for which the “stability of the obtained water solutions” value in series [2] is recorded as “good stability”. For the same molecule, in [3], the “antibacterial activity in vitro” value is recorded as “good antibacterial activity”. In series [4], the AUC is 299 µg·h/mL, the Cmax is 2710 ng/mL, the T1/2 is 28.04 h and the Tmax is recorded as 2 h. Moreover, in [5], the AUC came to 671 µg·h/mL, the Cmax is 9200 ng/mL, the T1/2 was 20.04 h and the Tmax was determined as 2 h. Also, the CL in series [6] turned out to be 0.092 mL·min/kg. For the same molecule, in series [7], the solubility result is “soluble in water, methanol, ethanol, acetone and unsoluble in isopropanol”. The same molecule came in with a T1/2 in series [8] (i.v) of 39.08 h. Moreover, the T1/2 in series [8] (p.o) came to 38.02 h.
In the case of `CO[C@H]1/C=C/O[C@@]2(C)Oc3c(C)c(O)c4c(O)c(c(/C=N/N5CCN(C/C=C/c6ccccc6)CC5)c(O)c4c3C2=O)NC(=O)/C(C)=C\C=C\[C@H](C)[C@H](O)[C@@H](C)[C@@H](O)[C@@H](C)[C@H](OC(C)=O)[C@@H]1C` [T-9, 3-(4-cinnamyl-1-piperazinyl)-iminomethyl rifamycin SV, reference compound], the acute toxicity in series [1] is 4000 mg/kg. In addition, in series [9], the “therapeutic activity in generalized tuberculosis” value is “full organ sterilization”. Also, in [4], the area under the curve (AUC) worked out at 233 µg·h/mL, the highest level (Cmax) was 2750 ng/mL, the T1/2 is 56.63 h and the Tmax turned out to be 2 h. Moreover, in series [5], the AUC was 543 µg·h/mL, the Cmax came to 8200 ng/mL, the T1/2 turned out to be 21.18 h and the time of peak concentration (Tmax) came out at 6 h. For the same molecule, in [6], the AUC was found to be 735 µg·h/mL, the CL is 0.092 mL·min/kg, the Cmax was 12400 ng/mL and the Tmax stood at 8 h. In addition, in series [7], the solubility entry is recorded as “unsoluble”. In [8] (p.o), this molecule showed a T1/2 of 33.70 h.
